Source: publication PMC5769128, “Human UDP-Glucuronosyltransferase 2B4 and 2B7 Are Responsible for Naftopidil Glucuronidation in Vitro” (Frontiers in Pharmacology, 2018)
Where two headings read alike, the source gives them in different places. Blank lines part the entries; values can stand above or below the molecule they belong to.

Columns and labels:
[1] = test system: UGT2B4/UGT2B7 (NAF glucuronidation); assay: Inhibition of the glucuronidation of NAF enantiomers by specific UGT inhibitors in pooled HLM; settings: human, pooled human liver microsomes, pH 7.5, probe R(+)-NAF 50 μM, S(-)-NAF 20 μM
[2] = human, ref Himmel, 1994, cited from earlier work
[3] = rat, ref Himmel, 1994, cited from earlier work
[4] = test system: animals; parameters: method as in Himmel, 1994; settings: 100 mg/day, ref Himmel, 1994; cited from earlier work
[5] = human, after oral treatment; no reference given; cited from earlier work
[6] = test system: human liver microsomes (HLM); assay: Kinetics of NAF enantiomer glucuronidation by human liver microsomes; type: in vitro ADME
Procedure: (§1) All glucuronidation assays were conducted in an incubation volume of 200 μL. Incubations were performed at 37°C in 50 mM Tris–HCl buffer (pH 7.5) with 10 mM magnesium chloride, 1 mg protein/mL of enzyme (microsomes and recombinant human UGTs), alamethicin (100 μg of alamethicin/mg microsomal protein), and NAF enantiomers (2.5–80 μM). The reaction was initiated by the addition of UDPGA (5 mM) and incubated at 37°C in a shaking water bath for 45 min. The reaction was terminated by the addition of 200 μL of ice-cold acetonitrile containing the IS (1 μM) and then centrifuged at 5000 ×g for 10 min at 4°C. The supernatant fraction was injected into the RRLC-MS/MS apparatus. Protein concentration (0.5–2 mg/mL) and incubation time (15–180 min) were optimized in preliminary studies to be within initial linear rate conditions.
(§2) Kinetic parameters were assessed in the HLM, RLM, HKM, RKM, and recombinant human UGTs (UGT2B4, 2B7, and 1A9).

[7] = test system: human kidney microsomes (HKM); assay: Kinetics of NAF enantiomer glucuronidation by human kidney microsomes; type: in vitro ADME
Procedure: as §1, §2

[8] = target: T1, recombinant human UGT2B4 (Homo sapiens, UniProt P06133); assay: Kinetics of NAF enantiomer glucuronidation by recombinant UGT2B4; type: in vitro ADME
T1 construct: purchased BD Gentest
T1 sequence (P06133 24-528): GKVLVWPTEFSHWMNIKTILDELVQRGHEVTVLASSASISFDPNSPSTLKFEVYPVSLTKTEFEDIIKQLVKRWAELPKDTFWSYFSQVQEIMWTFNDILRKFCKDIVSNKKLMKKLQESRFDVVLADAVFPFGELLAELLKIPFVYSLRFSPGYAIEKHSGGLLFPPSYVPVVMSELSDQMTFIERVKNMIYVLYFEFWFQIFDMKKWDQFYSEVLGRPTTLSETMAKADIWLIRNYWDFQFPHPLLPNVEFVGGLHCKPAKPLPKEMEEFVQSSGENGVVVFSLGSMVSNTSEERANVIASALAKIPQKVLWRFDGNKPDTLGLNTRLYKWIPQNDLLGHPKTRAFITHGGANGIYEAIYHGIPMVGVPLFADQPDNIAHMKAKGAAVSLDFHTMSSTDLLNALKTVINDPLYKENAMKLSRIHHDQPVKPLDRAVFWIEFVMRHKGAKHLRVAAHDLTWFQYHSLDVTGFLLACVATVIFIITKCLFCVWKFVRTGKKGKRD
Procedure: as §1, §2

[9] = target: T2, recombinant human UGT1A9 (Homo sapiens, UniProt O60656); assay: Kinetics of NAF enantiomer glucuronidation by recombinant UGT1A9; type: in vitro ADME
T2 construct: purchased BD Gentest
T2 sequence (O60656 26-530): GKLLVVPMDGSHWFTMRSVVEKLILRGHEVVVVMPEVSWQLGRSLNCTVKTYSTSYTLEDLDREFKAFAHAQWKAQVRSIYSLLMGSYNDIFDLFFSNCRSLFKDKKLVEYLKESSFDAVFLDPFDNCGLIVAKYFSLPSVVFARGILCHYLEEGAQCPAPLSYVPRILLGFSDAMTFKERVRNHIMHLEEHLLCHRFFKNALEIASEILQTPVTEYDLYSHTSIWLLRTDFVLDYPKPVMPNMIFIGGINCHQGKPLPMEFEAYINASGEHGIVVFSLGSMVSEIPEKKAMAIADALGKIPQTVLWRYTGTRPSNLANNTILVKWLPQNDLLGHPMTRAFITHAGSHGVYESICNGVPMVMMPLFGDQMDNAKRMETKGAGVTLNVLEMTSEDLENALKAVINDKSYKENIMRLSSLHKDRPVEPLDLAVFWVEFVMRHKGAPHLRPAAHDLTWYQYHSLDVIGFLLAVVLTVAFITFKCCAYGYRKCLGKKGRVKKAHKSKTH
Procedure: as §1, §2

[10] = parameters: method as in Liu et al., 2017; settings: rat plasma; ref Liu et al., 2017; cited from earlier work
[11] = target: T3, UGT2B7 (Homo sapiens, UniProt P16662); assay: Kinetics of NAF enantiomer glucuronidation by recombinant UGT2B7; type: in vitro ADME; parameters: purchased BD Gentest
T3 sequence (P16662 24-529): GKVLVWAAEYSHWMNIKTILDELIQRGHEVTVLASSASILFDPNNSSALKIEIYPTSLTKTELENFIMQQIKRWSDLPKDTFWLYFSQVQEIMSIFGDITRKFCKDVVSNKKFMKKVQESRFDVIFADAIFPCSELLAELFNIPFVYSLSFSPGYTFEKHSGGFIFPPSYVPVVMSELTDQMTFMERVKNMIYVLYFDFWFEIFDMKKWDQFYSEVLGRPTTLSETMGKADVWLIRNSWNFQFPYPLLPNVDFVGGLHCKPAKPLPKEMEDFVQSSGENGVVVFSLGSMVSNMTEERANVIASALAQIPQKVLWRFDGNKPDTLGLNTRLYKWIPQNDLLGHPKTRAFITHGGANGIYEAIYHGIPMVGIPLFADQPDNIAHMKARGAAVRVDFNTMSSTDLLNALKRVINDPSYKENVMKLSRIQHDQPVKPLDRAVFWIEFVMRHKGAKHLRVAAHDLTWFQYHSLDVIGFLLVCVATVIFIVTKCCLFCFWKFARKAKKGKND
Procedure: as §1, §2

[12] = test system: NAF glucuronidation in pooled HLM (UGT2B4/UGT2B7, UGT1A9); assay: Inhibition of the glucuronidation of NAF enantiomers by specific UGT inhibitors in pooled HLM; settings: inhibitor 5, 50 μM; pooled HLM
[13] = substrate: COc1ccccc1N1CCN(C[C@@H](O)COc2cccc3ccccc23)CC1; assay: cells, lysate or membranes named; settings: pH 7.5, 37.0 °C
[14] = substrate: COc1ccccc1N1CCN(C[C@H](O)COc2cccc3ccccc23)CC1; assay: cells, lysate or membranes named; settings: pH 7.5, 37.0 °C
[15] = other: NAF glucuronidation by UGT2B4
[16] = other: NAF glucuronidation by UGT2B7

inhibition at 45 min, 0.25 mM [1]: ~35%
inhibition at 45 min, 2.5 mM [1]: ~55%
Molecule: OC(Cn1cncn1)(Cn1cncn1)c1ccc(F)cc1F [Fluconazole, fluconazole]

Molecule: COc1ccccc1N1CCN(CC(O)COc2cccc3ccccc23)CC1 (stereo not shown) [NAF, Naftopidil]
bioavailability ([2]; Liu et al., 2015, 2017): < 20%
bioavailability [2]: 20%
bioavailability ([3]; Liu et al., 2015, 2017): 6.8–14.5%
bioavailability [3]: 9%
adverse findings at high doses [4]: reduced food consumption and body weight gain, apathy, diarrhea, proteinuria, and slightly increased levels of alkaline phosphatase
plasma levels [5]: < 10 µM

Kinetics type [8]: Substrate inhibition
Vmax [8]: 264 ± 38 pmol/min/mg
Kinetics type [9]: Substrate inhibition
Vmax [9]: 34 ± 2 pmol/min/mg
Kinetics type [11]: Substrate inhibition
Vmax [11]: 1043 ± 152 pmol/min/mg
Molecule: COc1ccccc1N1CCN(CC(COc2cccc3ccccc23)OC2OC(C(=O)O)C(O)C(O)C2O)CC1 (stereo not drawn) [R(+)-NAF-G]
Kinetics type [6]: Michaelis–Menten
Vmax [6]: 3330 ± 131 pmol/min/mg
Kinetics type [7]: Michaelis–Menten
Vmax [7]: 2786 ± 138 pmol/min/mg
level of glucuronide relative to parent enantiomer [10]: six

Kinetics type [8]: Substrate inhibition
Vmax [8]: 1976 ± 158 pmol/min/mg
Kinetics type [9]: Michaelis–Menten
Vmax [9]: 6.0 ± 2.2 pmol/min/mg
Kinetics type [11]: Substrate inhibition
Vmax [11]: 1331 ± 298 pmol/min/mg
Molecule: COc1ccccc1N1CCN(CC(COc2cccc3ccccc23)OC2OC(C(=O)O)C(O)C(O)C2O)CC1 (stereo not drawn) [S(-)-NAF-G]
Kinetics type [6]: Michaelis–Menten
Vmax [6]: 3472 ± 129 pmol/min/mg
Kinetics type [7]: Substrate inhibition
Vmax [7]: 1957 ± 100 pmol/min/mg
level of glucuronide relative to parent enantiomer [10]: threefold

Molecule: O=C(O)c1cccnc1Nc1cccc(C(F)(F)F)c1 [niflumic acid]
Inhibition of NAF glucuronidation [12]: could not inhibit NAF glucuronidation

B1: recombinant human UGT2B4 (Homo sapiens) (protein)
chain: T1 sequence (P06133 24-528)
Km [13, 15]: 51 µM
Vmax/Km [13, 15]: 5.2 µL/min/mg
Km [14, 15]: 55 µM
Vmax [14, 15]: 1976 pmol/min/mg

B2: recombinant human UGT2B7 (Homo sapiens) (protein)
chain: T3 sequence (P16662 24-529)
Km [13, 16]: 21 µM
Vmax [13, 16]: 1043 pmol/min/mg
Vmax/Km [13, 16]: 50 µL/min/mg
Km [14, 16]: 38 µM
Vmax [14, 16]: 1331 pmol/min/mg
